# Laboratory results reported in patent US20250092065A1, “2-(INDAZOL-5-YL)-6-(PIPERIDIN-4-YL)-1,7-NAPHTHYRIDINE DERIVATIVES AND RELATED COMPOUNDS AS MODULATORS FOR SPLICING NUCLEIC ACIDS AND FOR THE TREATMENT OF PROLIFERATIVE DISEASES” (REMIX THERAPEUTICS INC., priority 2022, published 2025).
# Counter-ions that a name gives are not always drawn.
# Experiments:
# [1] = tested on: K562 cells; assay: Cell Titer Glo 2.0 cell viability (toxicity) assay, K562; settings: 500 cells/well, 72 hours
# [2] = tested on: Target C; assay: HiBiT protein abundance assay, Target C (K562 HiBiT knock-in); format: cell-based, human; settings: HiBiT knock-in K562 cells, 24 hours, top dose 10 μM
# Method in brief: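 K562 HiBiT knock-in cells (10000/well) were treated 24 h at 37° C with a 10-point 3-fold dilution series (top 10 μM final, ≤0.25% DMSO). HiBiT luminescence was read after lytic LgBiT detection. Percent response used unmodified K562 and DMSO-treated knock-in controls, and IC50 came from a four-parameter fit at 50% of untreated.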
# [3] = tested on: Target C; assay: RT-qPCR canonical junction panel assay, Target C mRNA; format: cell-based; settings: Table 4, read-out: Target C IC50 (decrease in CJ mRNA levels)
# Method in brief: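 IC50 is the concentration giving 50% CJ decrease, from a 4-parameter logistic fit of percent response; response derived from ΔΔCt against housekeeper and DMSO over a fixed ΔCt window, with canonical exon-junction qPCR in compound-treated K562 or A673 cells.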
# [4] = tested on: HTT; assay: HiBiT protein abundance assay, HTT (K562 HiBiT knock-in); format: cell-based, human; settings: HiBiT knock-in K562 cells, 24 hours, top dose 10 μM
# Method in brief: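 Tagged-protein levels were measured as HiBiT/LgBiT luminescence in lysed K562 knock-in cells exposed to serially diluted compound (up to 10 μM final) for 24 hours. A four-parameter logistic regression of control-normalized signal yielded the IC50.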
IC50 [2],IC50 [3],IC50 [4],Compound,"Effect of Exemplary Compounds on Cell Viability, K562 [1]"
1000 to 10000 nM,1000 to 10000 nM,1000 to 10000 nM,Cc1nc2cc(O)c(-c3ccc4cc(N5CC[C@H](NC(C)(C)C)C5)ncc4n3)cc2o1 [Compound 450],C (C represents 1000-9999 nM)
100 to 1000 nM,1000 to 10000 nM,100 to 1000 nM,"Cc1c(O)c(-c2cc(Cl)c3cc(N4CCNCC4)cc(C)c3n2)cc2cn(C)nc12 [Compound 482, 5-[4-chloro-8-methyl-6-(piperazin-1-yl)577yrrolidi-2-yl]-2,7-dimethylindazol-6-ol hydrochloride]",A (A represents <100 nM)
1000 to 10000 nM,1000 to 10000 nM,1000 to 10000 nM,"Cc1cc2nc(-c3cc4cn(C)nc4c(C)c3O)cc(Cl)c2cc1N1CCNCC1 [Compound 484, 5-[4-chloro-7-methyl-6-(piperazin-1-yl)586yrrolidi-2-yl]-2,7-dimethylindazol-6-ol]",B (B represents 100-1000 nM)
1000 to 10000 nM,1000 to 10000 nM,1000 to 10000 nM,"CNC1CCN(c2cc3c(Cl)cc(-c4cc5cn(C)nc5c(C)c4O)nc3cc2C)C1 (stereo not shown) [Compound 486, 5-{4-chloro-7-methyl-6-[3-(methylamino)pyrrolidin-1-yl]quinolin-2-yl}-2,7-dimethylindazol-6-ol]",B (B represents 100-1000 nM)
